Test results taken from US20080287469A1, “Phosphoinositide 3-Kinase Inhibitors for Inhibiting Leukocyte Accumulation” (priority 2005, published 2008).

Legend:
[1] = system: E-selectin; test: Flow cytometric analysis of E-selectin expression on TNFα-stimulated HUVECs; details: TNFα 4 hr; IC87114 2 to 50 μM, LY294002 10 μM, Bay 11-7082 10 μM
[2] = system: TNFα-stimulated HUVEC monolayers; test: Laminar flow assay: neutrophil capture by TNFα-stimulated HUVEC monolayers; type: cell-based, human; details: wall shear rate 200 s^−1; IC87114 2 μM, LY294002 10 μM, Bay 11-7082 10 μM, CL3 50 μg/ml
Method: Peripheral blood neutrophils were isolated from healthy volunteers and infused over the endothelial cell monolayer that was incorporated into a parallel plate flow chamber (GlycoTech) for 5 min at a shear rate of 200 s^−1. (Puri et al., Blood, 103:3448-3456 (2004)) Approval was obtained from the Washington University institutional review board for these studies. Informed consent was provided according to the Declaration of Helsinki. Neutrophil-endothelial cell interactions were recorded and analyzed as previously described. (Puri et al., Blood, 103:3448-3456 (2004)) For E-selectin blockade, HUVECs were incubated with mAb CL3 (50 μg/ml, 15 min) prior to adhesion assays.

[3] = target: T1, p110δ (Mus musculus, UniProt O35904); test: Immunoprecipitation and PI3K activity assay: p110δ from spleen extracts of WT mice; type: biochemical; details: 10 μM; vs vehicle control
T1 construct: this enzyme isolated from spleen extracts of WT animals; from tissue; host or cells: mouse spleen
T1 sequence (O35904 whole entry): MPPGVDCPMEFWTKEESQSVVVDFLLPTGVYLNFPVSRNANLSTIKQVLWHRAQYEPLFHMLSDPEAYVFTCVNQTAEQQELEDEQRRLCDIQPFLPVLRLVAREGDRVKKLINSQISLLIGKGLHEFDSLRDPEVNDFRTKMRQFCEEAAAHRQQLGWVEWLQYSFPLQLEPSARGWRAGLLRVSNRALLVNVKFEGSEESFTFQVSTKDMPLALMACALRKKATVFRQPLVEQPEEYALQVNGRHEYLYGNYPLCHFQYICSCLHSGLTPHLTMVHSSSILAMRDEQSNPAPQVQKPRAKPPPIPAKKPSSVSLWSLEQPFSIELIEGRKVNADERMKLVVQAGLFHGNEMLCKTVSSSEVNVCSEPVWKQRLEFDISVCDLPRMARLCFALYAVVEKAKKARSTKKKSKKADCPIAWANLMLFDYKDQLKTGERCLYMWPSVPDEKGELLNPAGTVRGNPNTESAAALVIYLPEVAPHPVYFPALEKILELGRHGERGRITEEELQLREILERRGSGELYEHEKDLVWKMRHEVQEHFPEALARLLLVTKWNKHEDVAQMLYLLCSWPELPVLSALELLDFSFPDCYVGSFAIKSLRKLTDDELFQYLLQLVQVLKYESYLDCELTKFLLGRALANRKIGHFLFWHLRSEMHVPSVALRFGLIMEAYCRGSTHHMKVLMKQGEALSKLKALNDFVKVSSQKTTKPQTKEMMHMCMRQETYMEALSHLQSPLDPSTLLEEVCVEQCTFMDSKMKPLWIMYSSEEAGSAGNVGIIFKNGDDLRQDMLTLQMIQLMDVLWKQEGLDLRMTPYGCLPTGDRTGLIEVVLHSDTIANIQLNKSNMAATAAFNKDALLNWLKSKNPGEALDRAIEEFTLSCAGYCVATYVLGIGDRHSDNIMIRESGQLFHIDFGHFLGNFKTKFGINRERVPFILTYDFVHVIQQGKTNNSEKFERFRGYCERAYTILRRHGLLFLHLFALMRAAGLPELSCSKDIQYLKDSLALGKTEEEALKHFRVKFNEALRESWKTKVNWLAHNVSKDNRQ
T1 sequence (P26450 whole entry partner): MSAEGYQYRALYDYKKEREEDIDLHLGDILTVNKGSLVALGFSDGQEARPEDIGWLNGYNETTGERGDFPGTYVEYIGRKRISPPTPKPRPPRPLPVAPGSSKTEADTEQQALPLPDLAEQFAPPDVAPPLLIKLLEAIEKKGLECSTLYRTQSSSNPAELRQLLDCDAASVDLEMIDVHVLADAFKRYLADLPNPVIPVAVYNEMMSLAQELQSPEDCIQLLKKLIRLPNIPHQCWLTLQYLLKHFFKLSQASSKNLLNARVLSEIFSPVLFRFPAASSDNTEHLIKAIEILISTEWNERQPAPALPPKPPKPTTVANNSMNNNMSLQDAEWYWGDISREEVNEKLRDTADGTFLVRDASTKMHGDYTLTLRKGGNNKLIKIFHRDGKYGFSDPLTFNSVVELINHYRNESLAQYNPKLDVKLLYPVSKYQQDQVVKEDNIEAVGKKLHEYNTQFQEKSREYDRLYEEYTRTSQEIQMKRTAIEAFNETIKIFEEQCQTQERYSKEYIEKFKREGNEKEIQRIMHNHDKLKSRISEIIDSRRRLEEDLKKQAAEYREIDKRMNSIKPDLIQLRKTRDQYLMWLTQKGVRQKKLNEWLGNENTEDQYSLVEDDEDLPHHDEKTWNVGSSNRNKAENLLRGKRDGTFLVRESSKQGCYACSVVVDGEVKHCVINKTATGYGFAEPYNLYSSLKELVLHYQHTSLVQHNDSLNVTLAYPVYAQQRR
Method: Spleens from WT mice were pulverized in liquid nitrogen cooled mortar and solubilized in PI3-kinase lysis buffer (50 mM Tris-HCl (pH 7.4), 1% Triton X-100, 150 mM NaCl, 1 mM EDTA and a cocktail of inhibitors to serine and cysteine proteases (Complete™, Mini, Roch Applied Science, IN). HUVEC lysates were prepared as described. (Puri et al., Blood, 103:3448-3456 (2004)) Lysates were precleared with protein A-Sepharose and aliquots of the supernatants were incubated with antibodies specific for p110δ and p110γ, or control antibody for 1 hour at 4° C., followed by addition of protein A-Sepharose for 2 hours at 4° C. Precipitates were washed once with lysis buffer, twice with 0.1 M Tris-HCl, pH 7.4; 5 mM LiCl; and 0.1 mM sodium orthovanadate and once with PI 3-kinase buffer containing 20 mM Hepes, pH 7.4, 10 μM ATP, 5 mM MgCl2, plus 50 μg/ml horse IgG (Pierce, Rockford, Ill.). Lipid kinase activity was determined as previously described. (Sadhu et al., J. Immunol., 170:2647-2654 (2003)) The radioactive product PIP3 was captured onto a 96-well polyvinylidene difluoride filter plate (Millipore, Billerica, Mass.) and the bound radioactivity was quantitated with Microbeta Liquid Scintillation Counter (PerkinElmer Life Sciences, Boston, Mass.).

[4] = target: p110δ (Homo sapiens, UniProt O00329); details: cited from earlier work
Sequence of p110δ (Homo sapiens, UniProt O00329) (O00329 whole entry, species assumed): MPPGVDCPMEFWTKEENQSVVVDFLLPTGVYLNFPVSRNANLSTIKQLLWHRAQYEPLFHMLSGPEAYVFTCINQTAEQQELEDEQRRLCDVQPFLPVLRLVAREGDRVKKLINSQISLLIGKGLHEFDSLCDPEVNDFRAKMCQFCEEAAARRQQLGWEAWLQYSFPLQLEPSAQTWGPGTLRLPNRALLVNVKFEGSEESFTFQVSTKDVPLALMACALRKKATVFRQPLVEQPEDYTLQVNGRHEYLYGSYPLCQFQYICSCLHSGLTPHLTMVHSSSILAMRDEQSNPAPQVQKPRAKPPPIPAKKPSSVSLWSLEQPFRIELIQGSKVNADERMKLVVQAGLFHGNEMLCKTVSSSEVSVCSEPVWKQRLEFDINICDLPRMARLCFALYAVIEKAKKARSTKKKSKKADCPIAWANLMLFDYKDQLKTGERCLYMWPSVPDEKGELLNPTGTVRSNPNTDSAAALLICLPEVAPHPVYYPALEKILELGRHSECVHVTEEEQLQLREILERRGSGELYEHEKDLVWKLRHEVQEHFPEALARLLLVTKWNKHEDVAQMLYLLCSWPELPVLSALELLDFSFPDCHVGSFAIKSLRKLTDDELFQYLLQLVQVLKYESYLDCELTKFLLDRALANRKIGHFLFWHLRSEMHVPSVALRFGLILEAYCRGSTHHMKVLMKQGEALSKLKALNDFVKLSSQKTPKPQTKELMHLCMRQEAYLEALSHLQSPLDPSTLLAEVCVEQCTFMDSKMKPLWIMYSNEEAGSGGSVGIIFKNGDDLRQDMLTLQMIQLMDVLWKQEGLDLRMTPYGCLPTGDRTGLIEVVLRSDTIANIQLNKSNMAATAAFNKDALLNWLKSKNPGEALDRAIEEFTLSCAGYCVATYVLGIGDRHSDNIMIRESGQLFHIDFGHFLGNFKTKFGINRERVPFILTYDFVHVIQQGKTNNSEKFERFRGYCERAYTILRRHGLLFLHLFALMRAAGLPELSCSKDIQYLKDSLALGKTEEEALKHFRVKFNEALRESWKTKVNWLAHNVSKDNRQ
Sequence of p110δ (Homo sapiens, UniProt O00329) (P27986 whole entry partner, species assumed): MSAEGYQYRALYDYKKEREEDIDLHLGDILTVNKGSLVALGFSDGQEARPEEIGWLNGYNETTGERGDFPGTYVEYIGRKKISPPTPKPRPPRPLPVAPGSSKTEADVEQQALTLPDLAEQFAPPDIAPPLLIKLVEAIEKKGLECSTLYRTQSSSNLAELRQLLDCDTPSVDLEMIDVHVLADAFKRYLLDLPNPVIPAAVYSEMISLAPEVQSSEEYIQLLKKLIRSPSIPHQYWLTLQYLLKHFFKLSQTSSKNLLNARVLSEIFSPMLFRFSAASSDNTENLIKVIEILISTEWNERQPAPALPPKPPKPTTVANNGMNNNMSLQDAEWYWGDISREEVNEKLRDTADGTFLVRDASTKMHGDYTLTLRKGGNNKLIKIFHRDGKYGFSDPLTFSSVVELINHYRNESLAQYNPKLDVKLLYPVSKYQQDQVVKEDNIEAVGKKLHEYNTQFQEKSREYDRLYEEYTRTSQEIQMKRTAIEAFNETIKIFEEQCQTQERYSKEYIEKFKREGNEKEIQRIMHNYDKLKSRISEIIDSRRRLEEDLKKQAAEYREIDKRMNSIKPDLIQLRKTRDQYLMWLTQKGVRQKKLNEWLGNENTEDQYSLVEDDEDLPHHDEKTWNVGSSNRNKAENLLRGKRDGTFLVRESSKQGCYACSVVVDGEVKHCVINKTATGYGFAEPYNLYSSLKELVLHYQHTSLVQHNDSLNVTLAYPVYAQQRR

[5] = system: neutrophils on inflamed venular endothelium (E-selectin-dependent adhesion); test: Intravital microscopy of TNFα-stimulated cremaster muscle venules, P-selectin−/− mice; type: in vivo; details: oral, one hour prior to TNFα-stimulation, vs vehicle
Method: The surgical preparation of animals for all in vivo studies was performed using standard techniques. (Puri et al., Blood, 103:3448-3456 (2004)) An inflammatory response in the cremaster muscle (CM) venules of mice was induced by an intrascrotal injection of recombinant murine TNFα (20 ng/mouse). The tissue was surgically exposed 3 h post-cytokine stimulation and viewed on an intravital microscope (IV-500; Mikron instruments). GFP-expressing cells were visualized in the microcirculation through X^60 water immersion objective (Zeiss) using an intensified camera (VE1000SIT; Dage mti) and epifluorescence illumination. Rolling fraction was defined as the percentage of cells that interact with a given region of venule as compared to the total number of cells that enter that vessel (interacting and non-interacting) during the same time period. Venular shear rates were determined from optical Doppler velocimeter measurements of centerline erythrocyte velocity. Video images were recorded using a Hi8 VCR (Sony) and analysis of performed using a PC-based image analysis system.
Although P-selectin expressed on endothelium predominates in the initial capture of circulating neutrophils in acute tissue injury, it is E-selectin that accounts for the phenotypically slow rolling movements of these cells in microvessels of TNFα-stimulated CM. […]

[6] = Plasma concentration of the compound after oral administration; type: in vivo, mice; details: 4 h post-oral administration; P-selectin−/− mice
Method: Animals received a single oral dose of either a compound in accordance with the invention (25 mg/kg for mice and 20 or 40 mg/kg for rats) or vehicle (PEG-400). Blood samples were subsequently drawn at indicated time points and plasma concentration of the compound determined after liquid-liquid extraction by LC/MS. The lower quantification limit was 50 ng/ml. Plasma samples from control animals (vehicle alone) were used as the blank control.

In the case of `Cc1ccc(S(=O)(=O)/C=C/C#N)cc1` [Bay 11-7082], the “TNFα-induced expression of E-selectin” value [1] is reported as “abrogated” and the “reduction of capture/attachment of untreated neutrophils” value [2] is reported as 100%.

For `Cc1ccccc1-n1c(Cn2cnc3c(N)ncnc32)nc2cccc(C)c2c1=O` [IC87114], the “reduction of PIP3 production by immuno-precipitated p110δ” value [3] is given as over 90%, the “inhibition of delta activity” value ([4]; 10 μM) is given as over 95% and the “inhibition of p110δ activity at the mean plasma level” value ([4]; 4.9±2.7 μM, Sadhu et al.) is given as over 85%. For the same compound, the “reduction in neutrophil attachment to and rolling on inflamed venular endothelium” value [5] was over 88% and the “mean plasma level of the compound” value [6] was 4.9 ± 2.7 µM.
